Read-outs that look alike come from different tables or passages of the source.
Legend:
Assay in all cases: KiNativ assay
Assay type in all cases: binding
[1] = molecular target: ATR (Homo sapiens (Human), UniProt Q13535); conditions: H929 live cell
Method: (§1) Biochemical IC50s of the compounds of the present disclosure against various kinases were measured in a KiNativ assay. Compounds were screened in duplicate at 10 μM in H929 live cell. IC50 was measured via Mass spectroscopy (MS).

[2] = system: AurA, AurB, AurC; conditions: H929 live cell
Method: as §1

[3] = molecular target: AurB (Homo sapiens (Human), UniProt Q96GD4); conditions: H929 live cell
Method: as §1

[4] = molecular target: CDK7 (Homo sapiens (Human), UniProt P50613); conditions: H929 live cell
Method: as §1

[5] = molecular target: CHK2 (Homo sapiens (Human), UniProt O96017); conditions: H929 live cell
Method: as §1

[6] = molecular target: CaMKK2 (Homo sapiens (Human), UniProt Q96RR4); conditions: H929 live cell
Method: as §1

[7] = molecular target: Erk1 (Homo sapiens (Human), UniProt P27361); conditions: H929 live cell
Method: as §1

[8] = molecular target: FRAP (Homo sapiens (Human), UniProt P42345); conditions: H929 live cell
Method: as §1

[9] = system: FYN, SRC, YES; conditions: H929 live cell
Method: as §1

[10] = molecular target: GCK (Homo sapiens (Human), UniProt Q12851); conditions: H929 live cell
Method: as §1

[11] = molecular target: GSK3A (Homo sapiens (Human), UniProt P49840); conditions: H929 live cell
Method: as §1

[12] = molecular target: JAK1 domain2 (Homo sapiens (Human), UniProt P23458); conditions: H929 live cell
Method: as §1

[13] = molecular target: KHS1 (Homo sapiens (Human), UniProt Q9Y4K4); conditions: H929 live cell
Method: as §1

[14] = system: KSR1, KSR2; conditions: H929 live cell
Method: as §1

[15] = molecular target: LOK (Homo sapiens (Human), UniProt O94804); conditions: H929 live cell
Method: as §1

[16] = molecular target: MARK2 (Homo sapiens (Human), UniProt Q7KZI7); conditions: H929 live cell
Method: as §1

[17] = molecular target: MST2 (Homo sapiens (Human), UniProt Q13188); conditions: H929 live cell
Method: as §1

[18] = molecular target: NDR1 (Homo sapiens (Human), UniProt Q15208); conditions: H929 live cell
Method: as §1

[19] = molecular target: NuaK1 (Homo sapiens (Human), UniProt O60285); conditions: H929 live cell
Method: as §1

[20] = molecular target: PI4KB (Homo sapiens (Human), UniProt Q9UBF8); conditions: H929 live cell
Method: as §1

[21] = molecular target: PIP4K2C (Homo sapiens (Human), UniProt Q8TBX8); conditions: H929 live cell
Method: as §1

[22] = system: PITSLRE; conditions: H929 live cell
Method: as §1

[23] = molecular target: PKCi (Homo sapiens (Human), UniProt P41743); conditions: H929 live cell
Method: as §1

[24] = molecular target: PRP4 (Homo sapiens (Human), UniProt Q13523); conditions: H929 live cell
Method: as §1

[25] = system: RSK1 domain1, RSK2 domain1, RSK3 domain1; conditions: H929 live cell
Method: as §1

[26] = molecular target: RSK2 domain2 (Homo sapiens (Human), UniProt P51812); conditions: H929 live cell
Method: as §1

[27] = molecular target: RSKL1 (Homo sapiens (Human), UniProt Q96S38); conditions: H929 live cell
Method: as §1

[28] = molecular target: SGK3 (Homo sapiens (Human), UniProt Q96BR1); conditions: H929 live cell
Method: as §1

[29] = system: TAO1, TAO3; conditions: H929 live cell
Method: as §1

[30] = molecular target: TLK1 (Homo sapiens (Human), UniProt Q9UKI8); conditions: H929 live cell
Method: as §1

[31] = molecular target: TYK2 domain2 (Homo sapiens (Human), UniProt P29597); conditions: H929 live cell
Method: as §1

[32] = molecular target: p38a (Homo sapiens (Human), UniProt Q16539); conditions: H929 live cell, range class, read-out: % inhibition
Outline: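 Compounds were tested in duplicate at 10 μM in live H929 cells, and kinase engagement was profiled by KiNativ with mass spectrometry read-out to derive IC50.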

[33] = molecular target: p70S6K (Homo sapiens (Human), UniProt P23443); conditions: H929 live cell
Method: as §1

[34] = molecular target: p70S6Kb (Homo sapiens (Human), UniProt Q9UBS0); conditions: H929 live cell
Method: as §1

[35] = range class, read-out: % inhibition

NuaK1, sequence (O60285 whole entry): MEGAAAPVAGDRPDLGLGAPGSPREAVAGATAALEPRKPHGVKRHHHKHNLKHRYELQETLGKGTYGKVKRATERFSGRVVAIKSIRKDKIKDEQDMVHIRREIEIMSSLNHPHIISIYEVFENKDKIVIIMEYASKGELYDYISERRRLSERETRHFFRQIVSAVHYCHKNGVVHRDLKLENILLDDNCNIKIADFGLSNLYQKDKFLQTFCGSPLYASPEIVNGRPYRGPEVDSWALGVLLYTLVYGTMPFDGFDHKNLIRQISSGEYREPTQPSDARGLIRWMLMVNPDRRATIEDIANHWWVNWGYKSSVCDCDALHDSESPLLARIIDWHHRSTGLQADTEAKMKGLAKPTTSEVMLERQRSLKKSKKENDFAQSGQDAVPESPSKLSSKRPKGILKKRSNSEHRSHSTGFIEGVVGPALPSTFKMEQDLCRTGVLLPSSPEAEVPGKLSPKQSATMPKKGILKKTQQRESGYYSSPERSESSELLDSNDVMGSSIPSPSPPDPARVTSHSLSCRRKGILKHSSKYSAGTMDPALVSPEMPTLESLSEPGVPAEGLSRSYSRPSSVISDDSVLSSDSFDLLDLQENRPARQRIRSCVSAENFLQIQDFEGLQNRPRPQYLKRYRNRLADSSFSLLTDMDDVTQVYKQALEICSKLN
NDR1, sequence (Q15208 whole entry): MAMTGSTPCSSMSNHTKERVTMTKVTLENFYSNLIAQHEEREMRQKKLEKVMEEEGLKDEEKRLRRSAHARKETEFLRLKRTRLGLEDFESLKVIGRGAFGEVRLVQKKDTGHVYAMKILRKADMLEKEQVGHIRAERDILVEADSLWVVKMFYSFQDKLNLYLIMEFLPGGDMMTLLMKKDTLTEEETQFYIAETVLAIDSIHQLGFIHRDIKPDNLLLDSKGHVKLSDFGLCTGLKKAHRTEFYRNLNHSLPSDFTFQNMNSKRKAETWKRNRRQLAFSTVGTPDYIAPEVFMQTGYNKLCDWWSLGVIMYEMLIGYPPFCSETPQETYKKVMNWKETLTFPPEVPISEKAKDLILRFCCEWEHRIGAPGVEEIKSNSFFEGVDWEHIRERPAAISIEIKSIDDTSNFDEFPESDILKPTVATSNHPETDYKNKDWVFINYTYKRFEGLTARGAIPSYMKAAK
SGK3, sequence (Q96BR1 whole entry): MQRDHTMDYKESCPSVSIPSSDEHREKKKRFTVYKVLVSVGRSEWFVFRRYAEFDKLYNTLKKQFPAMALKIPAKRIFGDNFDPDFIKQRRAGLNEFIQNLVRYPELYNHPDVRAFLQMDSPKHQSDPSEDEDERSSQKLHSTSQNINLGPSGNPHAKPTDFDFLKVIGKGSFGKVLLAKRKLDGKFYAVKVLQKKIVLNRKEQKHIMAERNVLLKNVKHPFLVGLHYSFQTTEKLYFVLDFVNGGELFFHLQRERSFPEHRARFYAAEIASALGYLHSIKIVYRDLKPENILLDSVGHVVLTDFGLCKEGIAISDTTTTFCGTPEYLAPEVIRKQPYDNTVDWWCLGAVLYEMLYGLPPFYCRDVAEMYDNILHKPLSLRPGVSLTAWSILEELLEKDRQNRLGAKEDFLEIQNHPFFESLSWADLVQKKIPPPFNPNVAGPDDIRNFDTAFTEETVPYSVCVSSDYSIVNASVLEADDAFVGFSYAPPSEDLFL
Erk1, sequence (P27361 whole entry): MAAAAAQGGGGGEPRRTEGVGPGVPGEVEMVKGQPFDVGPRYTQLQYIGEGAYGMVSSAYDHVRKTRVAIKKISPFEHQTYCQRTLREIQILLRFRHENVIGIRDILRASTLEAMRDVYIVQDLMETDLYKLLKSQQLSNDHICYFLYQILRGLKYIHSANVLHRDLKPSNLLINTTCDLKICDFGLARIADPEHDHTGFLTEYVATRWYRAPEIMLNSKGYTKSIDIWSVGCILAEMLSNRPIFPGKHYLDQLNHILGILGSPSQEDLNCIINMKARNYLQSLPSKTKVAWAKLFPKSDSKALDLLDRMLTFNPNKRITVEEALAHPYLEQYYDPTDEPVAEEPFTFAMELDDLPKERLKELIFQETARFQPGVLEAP
GCK, sequence (Q12851 whole entry): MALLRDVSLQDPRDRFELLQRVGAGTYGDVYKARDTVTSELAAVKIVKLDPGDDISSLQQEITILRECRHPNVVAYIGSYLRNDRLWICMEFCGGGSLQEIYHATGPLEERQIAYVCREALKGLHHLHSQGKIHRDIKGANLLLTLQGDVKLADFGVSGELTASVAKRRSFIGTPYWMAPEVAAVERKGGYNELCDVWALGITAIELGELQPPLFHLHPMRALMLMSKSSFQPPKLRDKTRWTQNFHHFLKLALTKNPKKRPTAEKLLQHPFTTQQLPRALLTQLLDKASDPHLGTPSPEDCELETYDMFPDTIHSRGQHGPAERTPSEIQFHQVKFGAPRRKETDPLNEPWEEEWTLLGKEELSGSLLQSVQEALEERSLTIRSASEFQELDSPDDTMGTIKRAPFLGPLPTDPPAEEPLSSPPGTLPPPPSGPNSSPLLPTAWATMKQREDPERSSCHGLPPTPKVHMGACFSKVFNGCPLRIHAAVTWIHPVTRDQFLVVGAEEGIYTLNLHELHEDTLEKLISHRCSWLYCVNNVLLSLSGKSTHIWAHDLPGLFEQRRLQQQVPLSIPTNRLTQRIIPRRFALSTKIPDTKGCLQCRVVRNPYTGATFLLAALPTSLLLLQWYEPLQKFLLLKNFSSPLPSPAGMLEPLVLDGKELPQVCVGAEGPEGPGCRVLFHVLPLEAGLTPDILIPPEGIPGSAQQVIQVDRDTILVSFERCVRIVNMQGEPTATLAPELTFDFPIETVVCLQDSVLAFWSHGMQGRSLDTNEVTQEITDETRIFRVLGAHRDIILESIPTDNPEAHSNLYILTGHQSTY
RSK2 domain2, sequence (P51812 whole entry, the tested form may be a part): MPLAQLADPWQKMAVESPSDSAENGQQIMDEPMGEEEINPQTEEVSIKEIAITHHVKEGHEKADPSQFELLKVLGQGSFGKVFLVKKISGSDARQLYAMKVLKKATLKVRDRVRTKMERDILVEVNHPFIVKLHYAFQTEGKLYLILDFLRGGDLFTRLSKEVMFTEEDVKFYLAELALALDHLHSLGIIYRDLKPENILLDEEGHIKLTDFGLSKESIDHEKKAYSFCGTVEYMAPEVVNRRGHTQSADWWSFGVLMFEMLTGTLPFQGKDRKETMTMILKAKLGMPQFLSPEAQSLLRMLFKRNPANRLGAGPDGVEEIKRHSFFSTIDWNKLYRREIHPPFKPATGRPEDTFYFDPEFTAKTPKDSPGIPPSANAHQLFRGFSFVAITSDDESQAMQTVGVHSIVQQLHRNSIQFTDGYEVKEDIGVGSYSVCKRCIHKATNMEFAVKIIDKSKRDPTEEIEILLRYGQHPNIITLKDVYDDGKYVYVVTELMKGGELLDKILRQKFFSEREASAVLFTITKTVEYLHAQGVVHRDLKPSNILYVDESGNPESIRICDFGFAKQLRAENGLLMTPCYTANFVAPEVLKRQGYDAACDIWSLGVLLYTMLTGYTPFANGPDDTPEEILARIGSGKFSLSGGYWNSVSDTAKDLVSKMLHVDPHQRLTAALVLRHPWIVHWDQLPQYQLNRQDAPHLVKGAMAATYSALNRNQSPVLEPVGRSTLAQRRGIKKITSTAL
RSKL1, sequence (Q96S38 whole entry): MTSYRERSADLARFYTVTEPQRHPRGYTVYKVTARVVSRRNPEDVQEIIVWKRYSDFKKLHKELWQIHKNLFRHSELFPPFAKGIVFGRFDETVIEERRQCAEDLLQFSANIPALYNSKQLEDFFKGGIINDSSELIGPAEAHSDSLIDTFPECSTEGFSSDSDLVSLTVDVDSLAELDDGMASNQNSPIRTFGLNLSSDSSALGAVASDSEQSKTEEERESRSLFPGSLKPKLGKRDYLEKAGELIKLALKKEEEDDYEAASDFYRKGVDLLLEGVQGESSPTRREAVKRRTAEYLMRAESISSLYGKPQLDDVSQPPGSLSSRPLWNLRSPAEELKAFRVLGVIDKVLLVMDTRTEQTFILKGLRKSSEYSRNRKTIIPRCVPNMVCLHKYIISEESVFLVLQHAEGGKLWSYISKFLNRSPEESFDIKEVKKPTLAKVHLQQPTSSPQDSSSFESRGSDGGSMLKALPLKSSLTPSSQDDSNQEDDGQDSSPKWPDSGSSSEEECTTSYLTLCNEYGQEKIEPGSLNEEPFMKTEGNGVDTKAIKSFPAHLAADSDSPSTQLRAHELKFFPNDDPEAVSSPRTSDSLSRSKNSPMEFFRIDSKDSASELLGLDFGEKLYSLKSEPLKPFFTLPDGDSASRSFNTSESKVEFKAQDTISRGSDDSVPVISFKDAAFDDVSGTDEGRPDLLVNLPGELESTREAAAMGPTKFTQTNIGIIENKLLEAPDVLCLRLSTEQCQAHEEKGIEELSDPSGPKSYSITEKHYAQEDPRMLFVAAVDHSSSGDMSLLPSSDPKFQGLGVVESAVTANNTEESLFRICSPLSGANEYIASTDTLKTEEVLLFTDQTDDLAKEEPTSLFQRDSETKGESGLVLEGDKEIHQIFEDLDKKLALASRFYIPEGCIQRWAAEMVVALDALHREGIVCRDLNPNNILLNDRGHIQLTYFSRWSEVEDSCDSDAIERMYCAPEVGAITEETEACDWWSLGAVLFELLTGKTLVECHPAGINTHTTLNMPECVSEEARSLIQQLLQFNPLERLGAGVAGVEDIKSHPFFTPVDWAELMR
PIP4K2C, sequence (Q8TBX8 whole entry): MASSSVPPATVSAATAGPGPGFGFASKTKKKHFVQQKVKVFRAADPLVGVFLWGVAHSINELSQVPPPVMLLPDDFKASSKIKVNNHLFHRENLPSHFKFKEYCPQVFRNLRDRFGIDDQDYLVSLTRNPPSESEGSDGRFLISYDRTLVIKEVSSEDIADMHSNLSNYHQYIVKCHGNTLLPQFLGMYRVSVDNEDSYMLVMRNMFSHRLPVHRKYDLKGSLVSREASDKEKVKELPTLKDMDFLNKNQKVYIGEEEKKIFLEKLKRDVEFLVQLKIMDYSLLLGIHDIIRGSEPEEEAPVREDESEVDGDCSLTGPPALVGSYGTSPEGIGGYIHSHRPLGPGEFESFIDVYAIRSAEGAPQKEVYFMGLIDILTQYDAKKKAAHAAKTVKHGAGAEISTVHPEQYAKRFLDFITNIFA

Nc1ncc(-c2ccc(NS(=O)(=O)C3CC3)cc2F)cc1-c1ccc2c(c1)CCNC2=O [Compound I-51, N-(4-(6-amino-5-(1-oxo-1,2,3,4-tetrahydroisoquinolin-6-yl)pyridin-3-yl)-3-fluorophenyl) cyclopropanesulfonamide]
inhibition at 10 µM [1, 35]: 0%
inhibition at 10 µM ([1]; read-out: inhibition (10 μM)): 15%
% inhibition ([2]; 10 μM, range class): 50-75%
inhibition (10 μM) [2]: 53.2%
inhibition at 10 µM [3, 35]: 0%
inhibition at 10 µM ([3]; read-out: inhibition (10 μM)): 31.8%
inhibition at 10 µM [4, 35]: 0%
inhibition at 10 µM ([4]; read-out: inhibition (10 μM)): 17.4%
inhibition at 10 µM [5, 35]: 0%
inhibition at 10 µM ([5]; read-out: inhibition (10 μM)): 14.1%
inhibition at 10 µM [6, 35]: 75 to 90%
inhibition at 10 µM ([6]; read-out: inhibition (10 μM)): 78.5%
inhibition at 10 µM [7, 35]: 0%
inhibition at 10 µM ([7]; read-out: inhibition (10 μM)): 29.2%
inhibition at 10 µM [8, 35]: 0%
inhibition at 10 µM ([8]; read-out: inhibition (10 μM)): 25.1%
% inhibition ([9]; 10 μM, range class): 0.0%
inhibition (10 μM) [9]: −36.4%
inhibition at 10 µM [10, 35]: > 90%
inhibition at 10 µM ([10]; read-out: inhibition (10 μM)): 93.9%
inhibition at 10 µM [11, 35]: 75 to 90%
inhibition at 10 µM ([11]; read-out: inhibition (10 μM)): 85.2%
inhibition at 10 µM [12, 35]: 0%
inhibition at 10 µM ([12]; read-out: inhibition (10 μM)): -6.4%
inhibition at 10 µM [13, 35]: 50 to 75%
inhibition at 10 µM ([13]; read-out: inhibition (10 μM)): 72.7%
% inhibition ([14]; 10 μM, range class): 0.0%
inhibition (10 μM) [14]: −5.2%
inhibition at 10 µM [15, 35]: > 90%
inhibition at 10 µM ([15]; read-out: inhibition (10 μM)): 96.9%
inhibition at 10 µM [16, 35]: 0%
inhibition at 10 µM ([16]; read-out: inhibition (10 μM)): 24.6%
inhibition at 10 µM [17, 35]: > 90%
inhibition at 10 µM ([17]; read-out: inhibition (10 μM)): 95.3%
inhibition at 10 µM [18, 35]: 0%
inhibition at 10 µM ([18]; read-out: inhibition (10 μM)): 16.8%
inhibition (10 μM) [19]: 68.8%
inhibition at 10 µM [19, 35]: 50 to 75%
inhibition at 10 µM ([19]; read-out: inhibition (10 μM)): 71.9%
inhibition at 10 µM [20, 35]: 0%
inhibition at 10 µM ([20]; read-out: inhibition (10 μM)): 13%
inhibition at 10 µM [21, 35]: 75 to 90%
inhibition at 10 µM ([21]; read-out: inhibition (10 μM)): 85.4%
% inhibition ([22]; 10 μM, range class): 0.0%
inhibition (10 μM) [22]: −20.2%
inhibition at 10 µM [23, 35]: 0%
inhibition at 10 µM ([23]; read-out: inhibition (10 μM)): -49.1%
inhibition at 10 µM [24, 35]: 0%
inhibition at 10 µM ([24]; read-out: inhibition (10 μM)): 10.2%
% inhibition ([25]; 10 μM, range class): 0.0%
inhibition (10 μM) [25]: 25.8%
inhibition at 10 µM [26, 35]: 0%
inhibition at 10 µM ([26]; read-out: inhibition (10 μM)): 9.9%
inhibition at 10 µM [27, 35]: 0%
inhibition at 10 µM ([27]; read-out: inhibition (10 μM)): -22.1%
inhibition at 10 µM [28, 35]: 0%
inhibition at 10 µM ([28]; read-out: inhibition (10 μM)): 26.3%
% inhibition ([29]; 10 μM, range class): 75-90%
inhibition (10 μM) [29]: 80.4%
inhibition at 10 µM [30, 35]: 0%
inhibition at 10 µM ([30]; read-out: inhibition (10 μM)): -11.8%
inhibition at 10 µM [31, 35]: 0%
inhibition at 10 µM ([31]; read-out: inhibition (10 μM)): -23.9%
inhibition at 10 µM [32]: 0%
inhibition at 10 µM [33, 35]: 0%
inhibition at 10 µM ([33]; read-out: inhibition (10 μM)): -21.6%
inhibition at 10 µM [34, 35]: 0%
inhibition at 10 µM ([34]; read-out: inhibition (10 μM)): 5.5%
